# pEC50: −log10 of the molar value.
# Molecular target: T1, TLR8 (Homo sapiens, UniProt Q9NR97)
# T1 construct: host or cells: HEK293 (HEK-BLUE-hTLR8)
# T1 sequence (Q9NR97 27-1041): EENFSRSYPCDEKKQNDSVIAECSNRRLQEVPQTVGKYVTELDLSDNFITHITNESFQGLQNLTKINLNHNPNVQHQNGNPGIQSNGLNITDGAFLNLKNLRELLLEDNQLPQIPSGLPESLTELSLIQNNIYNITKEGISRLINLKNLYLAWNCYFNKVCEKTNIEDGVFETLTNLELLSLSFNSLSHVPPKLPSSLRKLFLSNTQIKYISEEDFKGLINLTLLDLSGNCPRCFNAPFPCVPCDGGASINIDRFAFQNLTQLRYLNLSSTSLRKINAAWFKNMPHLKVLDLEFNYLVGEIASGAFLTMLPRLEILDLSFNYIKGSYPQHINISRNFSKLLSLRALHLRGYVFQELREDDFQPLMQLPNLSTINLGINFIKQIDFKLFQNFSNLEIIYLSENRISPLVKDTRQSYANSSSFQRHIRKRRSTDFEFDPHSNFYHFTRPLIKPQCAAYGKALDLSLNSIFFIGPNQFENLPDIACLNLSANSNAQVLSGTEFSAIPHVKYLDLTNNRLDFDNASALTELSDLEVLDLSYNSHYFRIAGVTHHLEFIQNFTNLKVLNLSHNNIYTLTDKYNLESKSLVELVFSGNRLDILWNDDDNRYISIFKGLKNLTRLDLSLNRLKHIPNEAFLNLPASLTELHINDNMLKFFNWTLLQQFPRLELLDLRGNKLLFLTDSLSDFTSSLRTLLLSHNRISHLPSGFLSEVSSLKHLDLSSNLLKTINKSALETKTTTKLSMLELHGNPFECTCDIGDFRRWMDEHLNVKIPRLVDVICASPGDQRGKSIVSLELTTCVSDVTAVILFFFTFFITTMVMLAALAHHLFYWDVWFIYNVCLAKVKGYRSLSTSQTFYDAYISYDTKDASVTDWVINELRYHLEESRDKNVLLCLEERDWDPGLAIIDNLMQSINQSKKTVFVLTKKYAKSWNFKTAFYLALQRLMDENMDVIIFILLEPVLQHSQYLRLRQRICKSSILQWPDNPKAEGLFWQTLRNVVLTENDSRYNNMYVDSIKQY
# Assay: TLR8 cell based assay (HEK-BLUE-hTLR8, SEAP reporter linked to NF-κB activation)
# Conditions: HEK-BLUE-hTLR8 cells
# Description: In this assay, the bioactivity of compound of formula Iw as measured using a cell based assay. The assay was performed in human embryonic kidney cells (HEK293) expressing TLR8 or other TLR family members such as TLR4, TLR7 and TLR9 (for selectivity screens). The activity of specific TLR agonists was assessed using the secretory embryonic alkaline phosphatase (SEAP) reporter gene that is linked to NF-κB activation in response to TLR stimulation. The SEAP activity was measured using the Quanti-Blue substrate (InvivoGen) after TLR agonist treatment.
# The detailed experimental method is as follow:
# HEK-BLUE-hTLR8 cell line was purchased from InvivoGen. The cells were cultured in Dulbecco's Modified Eagle's Media containing 4.5 g/L […] (Sigma-Aldrich) and 10% FBS. The cells were cultured at 37° C., 95% humidity and 5% CO2.
# Test concentrations of the compounds ranged from 0.5 nM to 15 μM with 10 points. A known TLR8 agonist was added as positive control and 1 μl of DMSO was added as negative control.
# The cells were prepared as follows: The cells were removed from the incubator and growth medium was discarded. The cells were gently rinsed with pre-warmed 10 ml PBS for a T-150 flask. 12 ml pre-warmed growth medium was added, and the cells were detached by tapping the flask. Cell clumps were dissociated by gently pipetting up and down. The cells were counted. Single cell suspension was prepared at 200,000 cells per ml in growth medium and 200 μl of the cell suspension (40,000 cells per well) were immediately added to each well of the plate. The final DMSO concentration of each well was 0.5%.
# The cells were cultured and treated with the compounds at 37° C., 5% CO2 for 24 h.
# 20 μL of the supernatant of each well were added to 180 μL of QUANTI-Blue, and the plates were incubated at 37° C. for 1.5 hour. Optical density was measured using a spectrophotometer at 650 nm (OD data). Activivation was calculated by using the equation below: Activivation %=(Compound OD mean value−DMSO OD mean value)/(positive control OD mean value−DMSO OD mean value)×100
# The data were analyzed using the GraphPad to get EC50 values and fitting dose response curves of the compounds.
# [1] = 24 h treatment, SEAP/QUANTI-Blue readout
pEC50 [1],pEC50 (bound stated),Compound
6.00 to 7.00,,CCCN(CCC)C(=O)C1=Cc2ccc(-c3ccc4c(=O)n(CCNS(C)(=O)=O)cnc4c3)cc2N=C(N)C1 [Compound 1-7-6]
6.00 to 7.00,,CCCN(CCC)C(=O)C1=Cc2c(cc(-c3ccc4c(=O)n(CCS(C)(=O)=O)ncc4c3)cc2OC)N=C(N)C1 [Compound 2-2-1]
6.00 to 7.00,,CCCN(CCC)C(=O)C1=Cc2c(Cl)cc(-c3ccc4c(=O)n(CCS(C)(=O)=O)ncc4c3)cc2N=C(N)C1 [Compound 2-2-3]
> 7.00,,CCCN(CCC)C(=O)C1=Cc2c(F)cc(-c3ccc4c(=O)n(CC(=O)NCC)ccc4c3)cc2N=C(N)C1 [Compound 1-10-7]
> 7.00,,CCCN(CCC)C(=O)C1=Cc2ccc(-c3ccc4c(=O)n(CC(=O)N(C)C)ccc4c3)cc2N=C(N)C1 [Compound 1-2-24]
> 7.00,,CCCN(CCC)C(=O)C1=Cc2ccc(-c3ccc4c(=O)n(Cc5nnc(C)o5)ccc4c3)cc2N=C(N)C1 [Compound 1-2-30]
> 7.00,,CCCN(CCC)C(=O)C1=Cc2ccc(-c3ccc4c(=O)n(CC[S+](C)[O-])ncc4c3)cc2N=C(N)C1 (centres unmarked) [Compound 1-8-11]
5.00 to 6.00,,CCCN(CCC)C(=O)C1=Cc2ccc(-c3ccc4c(=O)[nH]ccc4c3)cc2N=C(N)C1 [Compound 1-1-1]
> 7.00,,CCCN(CCC)C(=O)C1=Cc2ccc(-c3ccc4c(=S)n(Cc5cnccn5)ccc4c3)cc2N=C(N)C1 [Compound 1-14-5]
6.00 to 7.00,,CCCN(CCC)C(=O)C1=Cc2ccc(-c3ccc4c(=O)n(CCc5ccccn5)ccc4c3)cc2N=C(N)C1 [Compound 1-2-50]
6.00 to 7.00,,CCCN(CCC)C(=O)C1=Cc2ccc(-c3ccc4c(=O)n(CC(N)=O)c(=O)n(C)c4c3)cc2N=C(N)C1 [Compound 1-9-3]
6.00 to 7.00,,CCCN(CCC)C(=O)C1=Cc2ccc(-c3ccc4c(=O)n(CCNS(N)(=O)=O)ccc4c3)cc2N=C(N)C1 [Compound 1-2-20]
5.00 to 6.00,,CCCN(CCC)C(=O)C1=Cc2ccc(-c3ccc4c(=O)n(Cc5nnn[nH]5)ccc4c3)cc2N=C(N)C1 [Compound 1-2-38]
6.00 to 7.00,,CCCN(CCC)C(=O)C1=Cc2ccc(-c3ccc4c(=O)n(Cc5ccccc5)ncc4c3)cc2N=C(N)C1 [Compound 1-8-19]
6.00 to 7.00,,CCCN(CCC)C(=O)C1=Cc2ccc(-c3ccc4c(=O)n(CC(N)=O)cnc4c3)cc2N=C(N)C1 [Compound 1-7-1]
6.00 to 7.00,,CCCN(CCC)C(=O)C1=Cc2ccc(-c3ccc4c(n3)CN(CCO)C4=O)cc2N=C(N)C1 [Compound 1-6-2]
> 7.00,,CCCN(CCC)C(=O)C1=Cc2c(Cl)cc(-c3ccc4c(=O)n(Cc5ncccn5)ncc4c3)cc2N=C(N)C1 [Compound 2-3-1]
> 7.00,,CCCN(CCC)C(=O)C1=Cc2ccc(-c3ccc4c(=O)n(Cc5cc[nH]n5)ccc4c3)cc2N=C(N)C1 [Compound 1-2-34]
6.00 to 7.00,,CCCN(CCC)C(=O)C1=Cc2ccc(-c3ccc4c(c3)CCN(CC)C4=O)cc2N=C(N)C1 [Compound 1-4-1]
> 7.00,,CCCN(CCC)C(=O)C1=Cc2c(F)cc(-c3ccc4c(=O)n(CC(=O)NC)c(=O)n(C)c4c3)cc2N=C(N)C1 [Compound 1-10-5]
> 7.00,> 8.00,CCCN(CCC)C(=O)C1=Cc2ccc(-c3ccc4c(=O)n(CCCS(C)(=O)=O)ncc4c3)cc2N=C(N)C1 [Compound 1-8-6]
5.00 to 6.00,,CCCN(CCC)C(=O)C1=Cc2ccc(-c3ccc4ccn(CCO)c(=O)c4c3)cc2N=C(N)C1 [Compound 1-2-51]

pEC50 [1],pEC50 (bound stated),Compound
> 7.00,,CCCN(CCC)C(=O)C1=Cc2c(F)cc(-c3ccc4c(=O)n(CCS(C)(=O)=O)ncc4c3)cc2N=C(N)C1 [Compound 1-10-2]
> 7.00,,CCCN(CCC)C(=O)C1=Cc2ccc(-c3ccc4c(=O)n(CCn5cccn5)ncc4c3)cc2N=C(N)C1 [Compound 1-8-13]
> 7.00,> 8.00,CCCN(CCC)C(=O)C1=Cc2ccc(-c3ccc4c(=S)n(CCS(C)(=O)=O)ncc4c3)cc2N=C(N)C1 [Compound 1-14-2]
> 7.00,,CCCN(CCC)C(=O)C1=Cc2ccc(-c3ccc4c(=O)n(CCO)ccc4c3)cc2N=C(N)C1 [Compound 1-2-6]
> 7.00,> 8.00,[2H]c1cc(-c2ccc3c(=O)n(CCS(C)(=O)=O)ncc3c2)cc2c1C=C(C(=O)N(CCC)CCC)CC(N)=N2 [Compound 2-2-4]
> 7.00,,CCCN(CCC)C(=O)C1=Cc2ccc(-c3ccc4c(=O)n(Cc5nc(OC)cc(OC)n5)ccc4c3)cc2N=C(N)C1 [Compound 1-2-46]
5.00 to 6.00,,CCCN(CCC)C(=O)C1=Cc2ccc(-c3cc4c(=O)n(CC)ccc4n3C)cc2N=C(N)C1 [Compound 1-5-1]
> 7.00,,CCCN(CCC)C(=O)C1=Cc2c(F)cc(-c3ccc4c(=O)n(CC(=O)NC)cnc4c3)cc2N=C(N)C1 [Compound 1-10-8]
> 7.00,> 8.00,CCCN(CCC)C(=O)C1=Cc2ccc(-c3ccc4c(=O)n(Cc5nc(C)cc(C)n5)ncc4c3)cc2N=C(N)C1 [Compound 1-8-17]
> 7.00,,CCCN(CCC)C(=O)C1=Cc2c(F)cc(-c3ccc4c(=O)n(CC(=O)NC)ncc4c3)cc2N=C(N)C1 [Compound 1-10-6]
> 7.00,> 8.00,[2H]c1cc(-c2ccc3c(=O)n(Cc4ncccn4)ncc3c2)cc2c1C=C(C(=O)N(CCC)CCC)CC(N)=N2 [Compound 2-3-3]
> 7.00,> 8.00,CCCN(CCC)C(=O)C1=Cc2ccc(-c3ccc4c(=O)n(Cc5ncnn5C)ccc4c3)cc2N=C(N)C1 [Compound 1-2-41]
> 7.00,,CCCN(CCC)C(=O)C1=Cc2ccc(-c3ccc4c(=O)n(CCn5ccnc5)ccc4c3)cc2N=C(N)C1 [Compound 1-2-37]
> 7.00,,CCCN(CCC)C(=O)C1=Cc2ccc(-c3ccc4c(=O)n(Cc5cnccn5)ccc4c3)cc2N=C(N)C1 [Compound 1-2-44]
> 7.00,,CCCN(CCC)C(=O)C1=Cc2ccc(-c3ccc4c(=O)n(Cc5ccccn5)ncc4c3)cc2N=C(N)C1 [Compound 1-8-20]
6.00 to 7.00,,CCCN(CCC)C(=O)C1=Cc2ccc(-c3ccc4c(=O)n(CC(C)C)ccc4c3)cc2N=C(N)C1 [Compound 1-2-5]
6.00 to 7.00,,CCCN(CCC)C(=O)C1=Cc2ccc(-c3ccc4c(=O)n(CCCO)ccc4c3)cc2N=C(N)C1 [Compound 1-2-7]
6.00 to 7.00,,CCCN(CCO)C(=O)C1=Cc2ccc(-c3ccc4c(=O)n(CC(N)=O)ccc4c3)cc2N=C(N)C1 [Compound 1-12-1]
> 7.00,,CCCN(CCC)C(=O)C1=Cc2ccc(-c3ccc4c(=O)n(CC(=O)NCC)ccc4c3)cc2N=C(N)C1 [Compound 1-2-25]
> 7.00,,CCCN(CCC)C(=O)C1=Cc2ccc(-c3ccc4c(=O)n(Cc5nccn5C(C)C)ccc4c3)cc2N=C(N)C1 [Compound 1-2-49]
5.00 to 6.00,,CCCN(CCC)C(=O)C1=Cc2ccc(-c3ccc4c(=O)n(CC(=O)O)ccc4c3)cc2N=C(N)C1 [Compound 1-2-42]
> 7.00,> 8.00,CCCN(CCC)C(=O)C1=Cc2ccc(-c3ccc4c(=O)n(CCOC)ncc4c3)cc2N=C(N)C1 [Compound 1-8-9]

Compound,pEC50 [1],pEC50 (bound stated)
CCCN(CCC)C(=O)C1=Cc2ccc(-c3ccc4c(=O)n(CCP(C)(=O)OCC)ccc4c3)cc2N=C(N)C1 (centres unmarked) [Compound 1-2-11],> 7.00,
CCCN(CCC)C(=O)C1=Cc2ccc(-c3ccc4c(=O)n(CCP(C)(=O)OCC)ncc4c3)cc2N=C(N)C1 (centres unmarked) [Compound 1-8-18],> 7.00,

# Source: patent US10669252B2, “Benzazepine derivative, preparation method, pharmaceutical composition and use thereof” (SHANGHAI DE NOVO PHARMATECH CO., LTD., priority 2016, dated 2020)
